In patent US8471005B2 (Cephalon, Inc., priority 2008, dated 2013):
Like-named read-outs stand apart in the source and are kept apart here. Values belong to the compound of their own block, whether it stands above or below them.

What was measured:
[1] = molecular target: T1, ALK (Homo sapiens, UniProt Q9UM73); experiment: ALK Kinase Assay (ELISA/TRF, PLC-γ substrate); format: biochemical; conditions: read-out: ALK Potency
T1 construct: host or cells: baculovirus expression system
Outline: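 Wells were coated with 10 μg/mL phospholipase C-γ substrate in TBS, and the reaction was started by adding 30 ng/ml ALK enzyme and run at 37° C for 15 minutes. Phosphorylated product was detected with Eu-N1-labeled PT66 antibody, and IC50 values came from sigmoidal variable-slope fits of percent inhibition against log concentration.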

[2] = molecular target: T2, JAK2 (Homo sapiens, UniProt O60674); experiment: Recombinant Human JAK2 Kinase Assay (TRF); format: biochemical; conditions: read-out: JAK2 Potency
T2 construct: host or cells: baculovirus expression system
Outline: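 Europium-labelled PY100 antibody reported tyrosine phosphorylation of a Neutravidin-captured biotinyl 15-mer peptide by JAK2 (baculovirus-expressed, 15 ng/ml). Conditions: 20 mM HEPES pH 7.2, 0.2 μM ATP, 1 mM MnCl2, 0.1% BSA, DMSO 2.5% final, 20 min at room temperature.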

[3] = ALK kinase inhibition, 1 μM ATP
[4] = JAK2 kinase inhibition, 0.2 μM ATP

T2 sequence (O60674 whole entry): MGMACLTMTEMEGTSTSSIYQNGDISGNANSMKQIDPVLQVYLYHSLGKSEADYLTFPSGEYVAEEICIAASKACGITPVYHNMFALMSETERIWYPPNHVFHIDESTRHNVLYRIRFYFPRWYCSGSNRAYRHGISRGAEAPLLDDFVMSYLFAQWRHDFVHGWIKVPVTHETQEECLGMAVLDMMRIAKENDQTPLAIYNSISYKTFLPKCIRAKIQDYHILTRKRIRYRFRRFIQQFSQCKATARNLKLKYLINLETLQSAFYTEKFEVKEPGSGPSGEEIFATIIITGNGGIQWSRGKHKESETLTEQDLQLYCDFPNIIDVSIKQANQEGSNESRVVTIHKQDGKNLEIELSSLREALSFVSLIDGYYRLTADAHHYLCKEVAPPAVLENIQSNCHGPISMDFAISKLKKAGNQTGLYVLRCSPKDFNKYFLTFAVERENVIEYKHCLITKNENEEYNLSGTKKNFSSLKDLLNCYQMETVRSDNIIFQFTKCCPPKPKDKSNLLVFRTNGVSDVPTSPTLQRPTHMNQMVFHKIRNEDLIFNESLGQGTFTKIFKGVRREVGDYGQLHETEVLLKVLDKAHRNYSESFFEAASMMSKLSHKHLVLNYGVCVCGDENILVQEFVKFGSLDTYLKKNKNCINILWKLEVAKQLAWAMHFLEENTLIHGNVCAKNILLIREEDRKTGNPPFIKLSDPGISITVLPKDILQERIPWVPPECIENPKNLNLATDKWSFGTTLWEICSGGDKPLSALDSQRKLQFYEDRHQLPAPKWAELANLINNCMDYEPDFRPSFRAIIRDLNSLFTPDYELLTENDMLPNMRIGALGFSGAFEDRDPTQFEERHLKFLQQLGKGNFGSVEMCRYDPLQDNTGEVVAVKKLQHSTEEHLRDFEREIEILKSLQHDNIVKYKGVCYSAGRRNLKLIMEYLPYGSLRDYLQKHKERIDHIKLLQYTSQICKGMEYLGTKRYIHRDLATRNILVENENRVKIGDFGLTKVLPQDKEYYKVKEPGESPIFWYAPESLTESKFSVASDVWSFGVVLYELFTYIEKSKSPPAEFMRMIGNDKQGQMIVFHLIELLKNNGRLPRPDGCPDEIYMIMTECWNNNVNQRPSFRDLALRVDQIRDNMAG
T1 sequence (Q9UM73 19-1620): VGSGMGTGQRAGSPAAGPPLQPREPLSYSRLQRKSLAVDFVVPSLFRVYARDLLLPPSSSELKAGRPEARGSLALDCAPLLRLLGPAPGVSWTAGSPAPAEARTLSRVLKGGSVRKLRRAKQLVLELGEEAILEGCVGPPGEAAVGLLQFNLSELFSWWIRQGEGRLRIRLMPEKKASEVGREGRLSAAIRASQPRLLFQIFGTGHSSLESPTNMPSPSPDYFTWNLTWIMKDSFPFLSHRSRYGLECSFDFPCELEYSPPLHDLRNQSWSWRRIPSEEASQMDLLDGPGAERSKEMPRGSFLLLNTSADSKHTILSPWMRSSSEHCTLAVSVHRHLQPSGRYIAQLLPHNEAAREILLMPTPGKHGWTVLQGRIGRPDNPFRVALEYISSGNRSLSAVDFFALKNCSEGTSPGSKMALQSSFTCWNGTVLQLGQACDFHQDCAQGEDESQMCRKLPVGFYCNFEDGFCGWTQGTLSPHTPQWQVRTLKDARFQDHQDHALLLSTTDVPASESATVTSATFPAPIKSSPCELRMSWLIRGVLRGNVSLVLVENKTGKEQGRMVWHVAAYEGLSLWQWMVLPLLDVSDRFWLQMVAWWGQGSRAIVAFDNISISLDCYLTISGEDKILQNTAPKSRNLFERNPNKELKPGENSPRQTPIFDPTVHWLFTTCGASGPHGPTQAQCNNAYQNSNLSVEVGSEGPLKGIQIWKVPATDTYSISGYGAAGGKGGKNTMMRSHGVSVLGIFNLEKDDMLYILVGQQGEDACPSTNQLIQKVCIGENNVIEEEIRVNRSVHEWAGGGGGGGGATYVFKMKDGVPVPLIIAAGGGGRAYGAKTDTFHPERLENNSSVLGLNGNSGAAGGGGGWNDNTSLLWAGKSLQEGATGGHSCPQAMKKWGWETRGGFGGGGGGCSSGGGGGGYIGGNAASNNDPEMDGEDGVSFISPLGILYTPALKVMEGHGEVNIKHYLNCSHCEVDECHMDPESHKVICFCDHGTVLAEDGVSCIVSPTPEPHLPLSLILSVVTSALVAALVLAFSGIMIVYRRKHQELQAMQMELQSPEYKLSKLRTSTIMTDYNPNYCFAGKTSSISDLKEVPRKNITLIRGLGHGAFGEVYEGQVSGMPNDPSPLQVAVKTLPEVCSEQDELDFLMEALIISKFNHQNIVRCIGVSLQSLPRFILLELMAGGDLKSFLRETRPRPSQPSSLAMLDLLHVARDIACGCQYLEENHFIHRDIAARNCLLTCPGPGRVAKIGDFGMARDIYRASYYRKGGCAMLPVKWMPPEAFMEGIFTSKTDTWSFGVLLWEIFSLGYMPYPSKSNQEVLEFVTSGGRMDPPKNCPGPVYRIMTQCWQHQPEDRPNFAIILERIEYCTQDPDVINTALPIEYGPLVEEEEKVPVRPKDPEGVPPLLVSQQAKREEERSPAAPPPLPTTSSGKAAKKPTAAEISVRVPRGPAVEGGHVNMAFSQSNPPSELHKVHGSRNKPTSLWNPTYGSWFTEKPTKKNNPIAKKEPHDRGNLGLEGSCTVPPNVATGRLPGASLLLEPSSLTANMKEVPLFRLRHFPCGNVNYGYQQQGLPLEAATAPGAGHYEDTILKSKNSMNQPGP

Compound: [7-(4-Methanesulfonyl-phenyl)-pyrrolo[2,1-f][1,2,4]triazin-2-yl]-[2-methoxy-4-(4-methyl-piperazin-1-yl)-phenyl]-amine [Example 1126]
- IC50 [1, 3]: < 100 nM
- IC50 [2, 4]: < 100 nM

Compound: COc1ccccc1-c1ccc2cnc(Nc3ccc(C4CCN(C)CC4)c(C)c3)nn12 [Example 942, [7-(2-Methoxy-phenyl)-pyrrolo[2,1-f][1,2,4]triazin-2-yl]-[3-methyl-4-(1-methyl-piperidin-4-yl)-phenyl]-amine]
- IC50 [1, 3]: < 100 nM
- IC50 [2, 4]: < 100 nM

Compound: COc1cc(N2CCN(C)CC2)ccc1Nc1ncc2cc3ccccc3n2n1 [Example 267, [2-Methoxy-4-(4-methyl-piperazin-1-yl)-phenyl]-[1,2,4]triazino[1,6-a]indol-2-yl-amine]
- IC50 ([1]; ALK Kinase Inhibition): 100 to 1000 nM
- IC50 ([2]; JAK2 Kinase Inhibition): 1000 to 10000 nM

Compound: CC(C)S(=O)(=O)c1cccc(-c2ccc3cnc(Nc4ccc(C5CCN(CC(N)=O)CC5)cc4)nn23)c1 [Example 570, 2-[4-(4-{7-[3-(Propane-2-sulfonyl)-phenyl]-pyrrolo[2,1-f][1,2,4]triazin-2-ylamino}-phenyl)-piperidin-1-yl]-acetamide]
- IC50 [1, 3]: 100 to 1000 nM
- IC50 [2, 4]: < 100 nM

Compound: COc1ccccc1-c1ccc2cnc(Nc3ccc(CN4CCN(C)CC4)cc3)nn12 [Example 353, [7-(2-Methoxy-phenyl)-pyrrolo[2,1-f][1,2,4]triazin-2-yl]-[4-(4-methyl-piperazin-1-ylmethyl)-phenyl]-amine]
- IC50 ([1]; ALK Kinase Inhibition): < 100 nM
- IC50 ([2]; JAK2 Kinase Inhibition): < 100 nM

Compound: CCc1cc(-c2ccccc2OC)n2nc(Nc3ccc(N4CCN(C)CC4)cc3)ncc12 [Example 106, [5-Ethyl-7-(2-methoxy-phenyl)-pyrrolo[2,1-f][1,2,4]triazin-2-yl]-[4-(4-methyl-piperazin-1-yl)-phenyl]-amine]
- IC50 ([1]; ALK Kinase Inhibition): 100 to 1000 nM
- IC50 ([2]; JAK2 Kinase Inhibition): < 100 nM

Compound: FC(F)(F)c1ccc(Cl)c(-c2ccc3cnc(Nc4ccc(N5CCOCC5)cc4)nn23)c1 [Example 70, [7-(2-Chloro-5-trifluoromethyl-phenyl)-pyrrolo[2,1-f][1,2,4]triazin-2-yl]-(4-morpholin-4-yl-phenyl)-amine]
- IC50 ([1]; ALK Kinase Inhibition): 1000 to 10000 nM
- IC50 ([2]; JAK2 Kinase Inhibition): < 100 nM

Compound: COc1ccc(Cl)cc1-c1ccc2cnc(Nc3ccc(N4CCN(C[C@H](C)O)CC4)cc3)nn12 [Example 203, (S)-1-(4-{4-[7-(5-Chloro-2-methoxy-phenyl)-pyrrolo[2,1-f][1,2,4]triazin-2-ylamino]-phenyl}-piperazin-1-yl)-propan-2-ol]
- IC50 ([1]; ALK Kinase Inhibition): < 100 nM
- IC50 ([2]; JAK2 Kinase Inhibition): < 100 nM

Compound: COc1ccc(Cl)cc1-c1ccc2cnc(Nc3ccc(N4CCCC(N5CCOCC5)C4)cc3)nn12 (stereo not shown) [Example 344, [7-(5-Chloro-2-methoxy-phenyl)-pyrrolo[2,1-f][1,2,4]triazin-2-yl]-[4-(3-morpholin-4-yl-piperidin-1-yl)-phenyl]-amine]
- IC50 ([1]; ALK Kinase Inhibition): < 100 nM
- IC50 ([2]; JAK2 Kinase Inhibition): < 100 nM

Compound: COc1cc(C2CCN(CC(C)(C)O)CC2)ccc1Nc1ncc2ccc(-c3ccccc3N(C)S(C)(=O)=O)n2n1 [Example 866, N-[2-(2-{4-[1-(2-Hydroxy-2-methyl-propyl)-piperidin-4-yl]-2-methoxy-phenylamino}-pyrrolo[2,1-f][1,2,4]triazin-7-yl)-phenyl]-N-methyl-methanesulfonamide]
- IC50 [1, 3]: < 100 nM
- IC50 [2, 4]: 100 to 1000 nM

Compound: [5-Bromo-7-(4-methanesulfonyl-phenyl)-pyrrolo[2,1-f][1,2,4]triazin-2-yl]-(4-morpholin-4-yl-phenyl)-amine [Example 99]
- IC50 ([1]; ALK Kinase Inhibition): > 10000 nM
- IC50 ([2]; JAK2 Kinase Inhibition): < 100 nM

Compound: COc1cc2c(cc1Nc1ncc3ccc(-c4ccccc4N(C)S(C)(=O)=O)n3n1)CN(C(=O)OC(C)(C)C)C2 [Example 875, 5-{7-[2-(Methanesulfonyl-methyl-amino)-phenyl]-pyrrolo[2,1-f][1,2,4]triazin-2-ylamino}-6-methoxy-1,3-dihydro-isoindole-2-carboxylic acid tert-butyl ester]
- IC50 [1, 3]: 1000 to 10000 nM
- IC50 [2, 4]: > 10000 nM

Compound: COc1cc(C2CCN(C[C@@H](C)O)CC2)ccc1Nc1ncc2ccc(-c3ccccc3OC)n2n1 [Example 787, (R)-1-(4-{3-Methoxy-4-[7-(2-methoxy-phenyl)-pyrrolo[2,1-f][1,2,4]triazin-2-ylamino]-phenyl}-piperidin-1-yl)-propan-2-ol]
- IC50 [1, 3]: < 100 nM
- IC50 [2, 4]: 100 to 1000 nM

Results, then the compound that gave them:

- IC50 [1, 3]: < 100 nM
- IC50 [2, 4]: 1000 to 10000 nM
Compound: COc1cc([C@H]2CC[C@@H](N3CCOCC3)CC2)ccc1Nc1ncc2ccc(-c3ccccc3N(C)S(C)(=O)=O)n2n1 [Example 1249, N-{2-[2-({2-methoxy-4-[cis-4-(morpholin-4-yl)cyclohexyl]phenyl}amino)pyrrolo[2,1-f][1,2,4]triazin-7-yl]phenyl}-N-methylmethanesulfonamide]

- IC50 ([1]; ALK Kinase Inhibition): 100 to 1000 nM
- IC50 ([2]; JAK2 Kinase Inhibition): < 100 nM
Compound: CN1CCN(C(=O)C(F)(F)c2ccc(Nc3ncc4ccc(-c5cccc(S(=O)(=O)NC(C)(C)C)c5)n4n3)cc2)CC1 [Example 1515, N-tert-Butyl-3-(2-{4-[1,1-difluoro-2-(4-methyl-piperazin-1-yl)-2-oxo-ethyl]-phenylamino}-pyrrolo[2,1-f][1,2,4]triazin-7-yl)-benzenesulfonamide]

- IC50 [1, 3]: 1000 to 10000 nM
- IC50 [2, 4]: 100 to 1000 nM
Compound: CS(=O)(=O)Nc1ccncc1-c1ccc2cnc(Nc3ccc(N4CCOCC4)cc3)nn12 [Example 1219, N-{3-[2-(4-Morpholin-4-yl-phenylamino)-pyrrolo[2,1-f][1,2,4]triazin-7-yl]-pyridin-4-yl}-methanesulfonamide]

- IC50 ([1]; ALK Kinase Inhibition): 100 to 1000 nM
- IC50 ([2]; JAK2 Kinase Inhibition): < 100 nM
Compound: CN(c1ccccc1-c1ccc2cnc(Nc3ccc(CN4CCCC4)cc3)nn12)S(C)(=O)=O [Example 1428, N-Methyl-N-{2-[2-(4-pyrrolidin-1-ylmethyl-phenylamino)-pyrrolo[2,1-f][1,2,4]triazin-7-yl]-phenyl}-methane sulfonamide]

- IC50 [1, 3]: 100 to 1000 nM
- IC50 [2, 4]: < 100 nM
Compound: CC(C)(C)NS(=O)(=O)c1cccc(-c2ccc3cnc(Nc4ccc5c(c4)ncn5CCN4CCOCC4)nn23)c1 [Example 1325, N-tert-Butyl-3-{2-[1-(2-morpholin-4-yl-ethyl)-1H-benzimidazol-5-ylamino]-pyrrolo[2,1-f][1,2,4]triazin-7-yl}-benzenesulfonamide]

- IC50 [1, 3]: 1000 to 10000 nM
- IC50 [2, 4]: < 100 nM
Compound: COc1ccc(-c2ccc3cnc(Nc4ccc5[nH]c(=O)[nH]c5c4)nn23)cn1 [Example 1309, 5-[7-(6-Methoxy-pyridin-3-yl)-pyrrolo[2,1-f][1,2,4]triazin-2-ylamino]-1,3-dihydro-benzimidazol-2-one]

- IC50 [1, 3]: 100 to 1000 nM
- IC50 [2, 4]: < 100 nM
Compound: COc1ccccc1-c1ccc2cnc(Nc3ccc(Cl)c(OCC4CCCN4C)c3)nn12 (stereo not shown) [Example 1011, [4-Chloro-3-(1-methyl-pyrrolidin-2-ylmethoxy)-phenyl]-[7-(2-methoxy-phenyl)-pyrrolo[2,1-f][1,2,4]triazin-2-yl]-amine]

- IC50 [1, 3]: 1000 to 10000 nM
- IC50 [2, 4]: < 100 nM
Compound: CC(=O)Nc1cccc(Nc2ncc3ccc(-c4ccc[nH]4)n3n2)c1 [Example 1292, N-{3-[7-(1H-Pyrrol-2-yl)-pyrrolo[2,1-f][1,2,4]triazin-2-ylamino]-phenyl}-acetamide]

- IC50 [1, 3]: < 100 nM
- IC50 [2, 4]: 100 to 1000 nM
Compound: COc1cc(CN2CCOCC2)ccc1Nc1ncc2ccc(-c3ccccc3OC)n2n1 [Example 1220, (2-Methoxy-4-morpholin-4-ylmethyl-phenyl)-[7-(2-methoxy-phenyl)-pyrrolo[2,1-f][1,2,4]triazin-2-yl]-amine]

- IC50 [1, 3]: < 100 nM
- IC50 [2, 4]: < 100 nM
Compound: COc1ccc(Cl)cc1-c1ccc2cnc(Nc3ccc(C4CCN(C)CC4)cc3)nn12 [Example 1121, [7-(5-Chloro-2-methoxy-phenyl)-pyrrolo[2,1-f][1,2,4]triazin-2-yl]-[4-(1-methyl-piperidin-4-yl)-phenyl]-amine]

- IC50 ([1]; ALK Kinase Inhibition): 100 to 1000 nM
- IC50 ([2]; JAK2 Kinase Inhibition): < 100 nM
Compound: CN1CCN(C)C(c2ccc(Nc3ncc4ccc(-c5cccc(S(=O)(=O)NC(C)(C)C)c5)n4n3)cc2)C1 (stereo not shown) [Example 1567, N-tert-Butyl-3-{2-[4-(1,4-dimethyl-piperazin-2-yl)-phenylamino]-pyrrolo[2,1-f][1,2,4]triazin-7-yl}-benzenesulfonamide]

- IC50 ([1]; ALK Kinase Inhibition): 100 to 1000 nM
- IC50 ([2]; JAK2 Kinase Inhibition): < 100 nM
Compound: CN1CCN(c2ccc(Nc3ncc4ccc(-c5ccccc5OCC(=O)O)n4n3)cc2F)CC1 [Example 1401, (2-{2-[3-Fluoro-4-(4-methyl-piperazin-1-yl)-phenylamino]-pyrrolo[2,1-f][1,2,4]triazin-7-yl}-phenoxy)-acetic acid]

- IC50 [1, 3]: 100 to 1000 nM
- IC50 [2, 4]: < 100 nM
Compound: C#CCNC(=O)c1cccc(-c2ccc3cnc(Nc4ccc(N5CCN(C)CC5)cc4)nn23)c1 [Example 1147, 3-{2-[4-(4-Methyl-piperazin-1-yl)-phenylamino]-pyrrolo[2,1-f][1,2,4]triazin-7-yl}-N-prop-2-ynyl-benzamide]

- IC50 [1, 3]: 1000 to 10000 nM
- IC50 [2, 4]: < 100 nM
Compound: COc1ccc(-c2ccc3cnc(Nc4ccc(N5CCOCC5)cc4)nn23)cn1 [Example 1105, [7-(6-Methoxy-pyridin-3-yl)-pyrrolo[2,1-f][1,2,4]triazin-2-yl]-(4-morpholin-4-yl-phenyl)-amine]

- IC50 [1, 3]: 1000 to 10000 nM
- IC50 [2, 4]: < 100 nM
Compound: COc1ccccc1-c1ccc2cnc(Nc3ccc(N4CCOCC4)cn3)nn12 [Example 1202, [7-(2-Methoxy-phenyl)-pyrrolo[2,1-f][1,2,4]triazin-2-yl]-(5-morpholin-4-yl-pyridin-2-yl)-amine]

- IC50 [1, 3]: < 100 nM
- IC50 [2, 4]: 100 to 1000 nM
Compound: COc1cc2c(cc1Nc1ncc3ccc(-c4ccccc4OC)n3n1)CCN(C[C@@H](C)O)CC2 [Example 991, (R)-1-{7-Methoxy-8-[7-(2-methoxy-phenyl)-pyrrolo[2,1-f][1,2,4]triazin-2-ylamino]-1,2,4,5-tetrahydro-benzo[d]azepin-3-yl}-propan-2-ol]
